SMILES strings stand for the structures. Converted amounts (≈) assume the structure as drawn.

This passage reports MIC results from ChEMBL document CHEMBL1154486, “Synthesis and evaluation of in vitro anti-tuberculosis activity of N-substituted glycolamides” (2009).

This assay concerns Mycobacterium tuberculosis. The experiment in a line: Antimycobacterial activity against Mycobacterium tuberculosis H37Rv ATCC 27294 by microplate alamar blue assay. In kind it is functional.

As a reminder, the MIC is the lowest concentration that inhibits growth of the organism. As to `CCC(CO)NC(=O)CO` (centres undefined), the minimal inhibitory concentration (MIC) turned out to be 29.5 µg/mL (≈ 200 µM).

`O=C(CO)N1CCCCC1` showed a minimal inhibitory concentration (MIC) of 38.8 µg/mL (≈ 271 µM).

`O=C(CO)N1CCOCC1`: 13.8 µg/mL (≈ 94.7 µM) was the least that counted as inhibitory (MIC).

`O=C(CO)NCCc1ccccc1` yielded a minimal inhibitory concentration (MIC) of 74 µg/mL (≈ 413 µM).

Take `O=C(CO)NCCO`: the minimum inhibitory concentration (MIC) was 87.5 µg/mL (≈ 735 µM).

The molecule `O=C(CO)N1CCCC(O)C1` (centres undefined) came in with an MIC of 60 µg/mL (≈ 377 µM).

In turn, `O=C(CO)N1CCN(C(=O)CO)CC1` displayed an MIC of 15.8 µg/mL (≈ 77.9 µM).

For `O=C(CO)N1CCCC1`, the minimal inhibitory concentration (MIC) amounted to 25.5 µg/mL (≈ 197 µM).

`O=C(CO)N1CCC(O)CC1` showed a minimum inhibitory concentration (MIC) of 33.2 µg/mL (≈ 209 µM).

The molecule `CC(CO)(CO)NC(=O)CO` showed a minimum inhibitory concentration (MIC) of 67.5 µg/mL (≈ 414 µM).

Turning to `O=C(CO)N1CCN(CCO)CC1`, it took 14.2 µg/mL (≈ 75.7 µM) to inhibit growth (MIC).

`O=C(CO)NN1CCOCC1` showed a minimal inhibitory concentration (MIC) of 57 µg/mL (≈ 356 µM).

As to `O=C(CO)N(CCO)CCO`, the MIC worked out at 12.5 µg/mL (≈ 76.6 µM).

`CC[C@@H](CO)NCCN[C@@H](CC)CO` [ETHAMBUTOL] yielded a minimal inhibitory concentration (MIC) of 5 µg/mL (≈ 24.5 µM).
